# Reference: patent US9962354B2, “Method and composition for bacterial or fungal suppression on skin” (priority 2009, dated 2018)
# What was measured:
# [1] = direct application of oil to skin with acne; type: in vivo; settings: applied twice daily directly to skin; after 24 hours
# From the text: CLA free fatty acid oil was applied twice daily directly to skin with acne.
# [2] = test system: pseudomonas aeruginosa (ATCC 15442); experiment: 27 hour kinetic growth assay using a redox active dye; type: cell-based; settings: 25 uL test material in TSB, 27 hour kinetic assay
# Experimental: (§1) Conjugated linoleic acid (80%) and conjugated linoleic acid diglyceride, containing both trans and cis isomers, were used to show persisting reduction of bacterial growth over several hours. Each measure was accomplished in separate wells. Each well received a unique combination of the following, including controls. Conjugated linoleic acid 80% and conjugated linoleic acid diglyceride, 25 uL were each separately added to Trypticase Soy Broth (TSB). To each solution was added 75 uL TSB plus 50 uL staphylococcus aureus (ATCC 6366) or pseudomonas aeruginosa (ATCC 15442). This was then entered into a 27 hour kinetic assay using a redox active dye to monitor growth. Appropriate controls were simultaneously run.
# [3] = test system: staphylococcus aureus (ATCC 6366); experiment: as above; type: cell-based; settings: 25 uL test material in TSB, 27 hour kinetic assay
# Experimental: as §1
Substance,size and redness of the acne [1],reduction in bacterial growth beginning at [2],reduction in bacterial growth sustained for [2],reduction in bacterial growth beginning at [3],reduction in bacterial growth sustained for [3]
conjugated linoleic acid [conjugated linoleic free fatty acid],substantial reduction in the size and redness of the acne,200 min,27 h,30 min,20 h
conjugated linoleic acid diglyceride [conjugated linoleic diglyceride],–,200 min,27 h,30 min,20 h
